What was measured:
PIKFYVE [1] = target: T1, PIKFYVE (Homo sapiens, UniProt Q9Y2I7); assay: PIKFYVE assay (luciferase ADP-Glo kinase assay, Promega); assay type: biochemical
In short: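 Kinase activity measured with a luciferase-based ADP-Glo read-out, which quantifies ADP formed by the enzyme.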

PIKFYVE [2] = target: T1, PIKFYVE; assay: Cell-based Pikfyve inhibition activity assay (EEA1 staining, mean vesicle size in BJ fibroblast cells); settings: Table 4, 4 hours treatment, 3 μM Apilimod = 100% inhibition
Experimental: BJ fibroblast cells were obtained from American Type Cell Culture (ATCC, CRL-2522). The cells were maintained in DMEM (Genesee Scientific, 25-500) supplemented with 10% fetal bovine serum (Genesee Scientific, 25-514) and 1% penicillin-streptomycin (Genesee Scientific, 25-512) at 37° C. in the atmosphere 5% CO2. BJ fibroblasts were plated into black flat clear bottom 96-well plates (Grenier, 655090) at a density of 3×10^3 per well and were allowed to attach in culture for 8-10 hours before drug treatment. Drugs were tested at eleven doses separated by 3 fold from 0.03 nM to 3000 nM in triplicates for 4 hours at 37° C. After 4 hours, treatment media was aspirated and replaced with 4% Paraformaldehyde (Electron Microscopy Science, 15714-S) and cells were fixed at room temperature for 5 minutes. 4% PFA in wells were then discarded and replaced with a blocking buffer consisting of 1×PBS with 0.1% Tween (Sigma-Aldrich, P1754-500), 5% Donkey Serum (Jackson ImmunoResearch, 017-000-121), and 1% BSA (Caisson Labs, B005-50GM) and incubated at room temperature for 30 minutes. Blocking buffer was then discarded and replaced with a primary EEA1 antibody (Fisher Scientific, BD610457) in a 1:1000 dilution and incubated at 4° C. overnight. Following overnight incubation, plates were washed with 1×PBS three times and incubated with secondary antibody Donkey anti-Mouse IgG, Alexa Fluor 555 (Invitrogen, A31570) (1:1000 dilution) for 1 hour at room temperature in the dark. Subsequently cell plates were washed with 1×PBS three times and can be stored at 4° C. if not being proceeding with imaging procedure.
Images were acquired with 20× objective (ImageXpress MicroConfocal, Molecular Devices) creating z-series of 5 planes (5 steps, […]), 16 tiles per well. Images were then analyzed using a custom CellProfiler protocol to obtain mean vesicle size. The mean vesicle size from 16 images was used as the output for each well. The mean vesicle size from 0.5% DMSO treated condition was considered as having no Pikfyve inhibition activity and the 3 μM Apilimod treated condition was considered as having 100% inhibition activity. The mean vesicle size was converted to % inhibition activity and the data was fitted to a dose-response curve using log(inhibitor) vs normalized response-variable slope using GraphPad Prism.

T1 sequence (Q9Y2I7 whole entry): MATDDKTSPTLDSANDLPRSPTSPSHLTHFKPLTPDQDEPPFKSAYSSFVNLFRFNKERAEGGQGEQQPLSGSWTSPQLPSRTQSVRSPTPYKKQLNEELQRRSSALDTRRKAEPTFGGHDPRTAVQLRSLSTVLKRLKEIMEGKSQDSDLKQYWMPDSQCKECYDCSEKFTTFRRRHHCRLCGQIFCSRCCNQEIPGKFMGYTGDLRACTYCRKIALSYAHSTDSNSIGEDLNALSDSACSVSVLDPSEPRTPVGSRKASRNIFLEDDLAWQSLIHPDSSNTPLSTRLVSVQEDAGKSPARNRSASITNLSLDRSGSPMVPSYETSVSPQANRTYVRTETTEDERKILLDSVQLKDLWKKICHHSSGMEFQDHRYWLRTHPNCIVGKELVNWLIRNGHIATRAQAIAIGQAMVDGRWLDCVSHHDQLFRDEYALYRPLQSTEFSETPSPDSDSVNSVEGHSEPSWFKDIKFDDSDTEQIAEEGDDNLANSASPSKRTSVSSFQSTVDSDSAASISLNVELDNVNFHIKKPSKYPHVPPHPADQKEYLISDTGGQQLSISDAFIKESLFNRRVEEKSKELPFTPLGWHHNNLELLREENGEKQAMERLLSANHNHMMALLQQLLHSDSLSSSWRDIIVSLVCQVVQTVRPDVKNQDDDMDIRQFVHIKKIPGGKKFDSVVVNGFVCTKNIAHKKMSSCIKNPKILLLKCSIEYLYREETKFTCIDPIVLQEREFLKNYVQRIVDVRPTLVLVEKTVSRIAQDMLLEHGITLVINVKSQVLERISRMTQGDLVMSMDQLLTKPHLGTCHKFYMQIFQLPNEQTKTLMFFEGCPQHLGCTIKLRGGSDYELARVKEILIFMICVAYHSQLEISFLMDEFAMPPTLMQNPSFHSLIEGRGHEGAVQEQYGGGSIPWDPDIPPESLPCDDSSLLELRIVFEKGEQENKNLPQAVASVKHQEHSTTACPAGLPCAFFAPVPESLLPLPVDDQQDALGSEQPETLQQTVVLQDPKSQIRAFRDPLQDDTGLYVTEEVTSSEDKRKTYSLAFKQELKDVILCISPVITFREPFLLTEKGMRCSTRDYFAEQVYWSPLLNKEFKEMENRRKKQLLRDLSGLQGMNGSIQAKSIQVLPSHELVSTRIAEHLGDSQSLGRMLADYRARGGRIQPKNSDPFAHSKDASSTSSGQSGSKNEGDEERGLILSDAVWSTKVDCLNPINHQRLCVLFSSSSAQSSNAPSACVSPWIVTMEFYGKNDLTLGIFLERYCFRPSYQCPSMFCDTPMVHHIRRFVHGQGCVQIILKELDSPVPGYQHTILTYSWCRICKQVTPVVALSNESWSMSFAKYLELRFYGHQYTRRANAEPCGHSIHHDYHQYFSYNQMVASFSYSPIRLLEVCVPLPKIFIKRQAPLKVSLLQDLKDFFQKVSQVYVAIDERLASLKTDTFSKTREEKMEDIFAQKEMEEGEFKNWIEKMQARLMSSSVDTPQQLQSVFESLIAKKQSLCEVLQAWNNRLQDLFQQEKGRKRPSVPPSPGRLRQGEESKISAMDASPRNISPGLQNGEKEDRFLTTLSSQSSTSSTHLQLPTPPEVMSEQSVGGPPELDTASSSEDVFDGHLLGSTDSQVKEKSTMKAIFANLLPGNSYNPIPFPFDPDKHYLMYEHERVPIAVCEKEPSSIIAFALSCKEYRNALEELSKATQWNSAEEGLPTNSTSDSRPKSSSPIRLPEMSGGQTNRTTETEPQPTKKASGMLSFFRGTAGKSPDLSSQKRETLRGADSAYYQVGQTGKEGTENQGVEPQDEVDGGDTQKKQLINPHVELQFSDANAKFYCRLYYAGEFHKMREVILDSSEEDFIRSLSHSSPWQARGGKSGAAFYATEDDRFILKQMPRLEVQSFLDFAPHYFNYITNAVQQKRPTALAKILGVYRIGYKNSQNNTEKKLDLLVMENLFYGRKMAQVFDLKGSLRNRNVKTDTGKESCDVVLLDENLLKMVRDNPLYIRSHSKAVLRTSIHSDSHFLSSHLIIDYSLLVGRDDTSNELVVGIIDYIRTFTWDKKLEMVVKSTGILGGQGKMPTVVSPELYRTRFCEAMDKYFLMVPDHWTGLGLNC

CC(=O)NCCOc1nc(N2CCOCC2)cc(-n2ccc(-c3cccc(C)c3)n2)n1 [Compound 90, N-(2-((4-morpholino-6-(3-(m-tolyl)-1H-pyrazol-1-yl)pyrimidin-2-yl)oxy)ethyl) acetamide]
IC50 (PIKFYVE [1]; Table 2): < 5 nM | EC50 (PIKFYVE [2]): < 20 nM

Cc1cccc(-c2ccn(-c3cc(N4CCOCC4)nc(OCCOc4ccccc4)n3)n2)c1 [Compound 93, 4-(2-(2-phenoxyethoxy)-6-(3-(m-tolyl)-1H-pyrazol-1-yl)pyrimidin-4-yl)morpholine]
IC50 (PIKFYVE [1]; Table 3): 10 to 100 nM | EC50 (PIKFYVE [2]): 100 to 500 nM

Cc1cccc(-c2ccn(-c3cc(N4CCOCC4)nc(OCCc4cnccn4)n3)n2)c1 [Compound 94, 4-(2-(2-(pyrazin-2-yl)ethoxy)-6-(3-(m-tolyl)-1H-pyrazol-1-yl)pyrimidin-4-yl)morpholine]
IC50 (PIKFYVE [1]; Table 3): < 3 nM | EC50 (PIKFYVE [2]): < 20 nM

Cc1cccc(-c2ccn(-c3cc(N4CCOCC4)nc(OCc4ncccc4F)n3)n2)c1 [Compound 95, 4-(2-((3-fluoropyridin-2-yl)methoxy)-6-(3-(m-tolyl)-1H-pyrazol-1-yl)pyrimidin-4-yl)morpholine]
IC50 (PIKFYVE [1]; Table 3): 3 to 10 nM | EC50 (PIKFYVE [2]): 20 to 100 nM

Cc1cccc(-c2ccn(-c3cc(N4CCOCC4)nc(OCCc4sc(C)nc4C)n3)n2)c1 [Compound 98, 4-(2-(2-(2,4-dimethylthiazol-5-yl)ethoxy)-6-(3-(m-tolyl)-1H-pyrazol-1-yl)pyrimidin-4-yl)morpholine]
IC50 (PIKFYVE [1]; Table 3): 3 to 10 nM | EC50 (PIKFYVE [2]): < 20 nM

Cc1cccc(-c2ccn(-c3cc(N4CCOCC4)nc(OCCNc4ccccc4)n3)n2)c1 [Compound 99, N-(2-((4-morpholino-6-(3-(m-tolyl)-1H-pyrazol-1-yl)pyrimidin-2-yl)oxy)ethyl)aniline]
IC50 (PIKFYVE [1]; Table 3): 10 to 100 nM | EC50 (PIKFYVE [2]): 100 to 500 nM

Cc1cccc(-c2ccn(-c3cc(N4CCOCC4)nc(OCCN(C)c4ccccc4)n3)n2)c1 [Compound 100, N-methyl-N-(2-((4-morpholino-6-(3-(m-tolyl)-1H-pyrazol-1-yl)pyrimidin-2-yl)oxy)ethyl)aniline]
IC50 (PIKFYVE [1]; Table 3): 3 to 10 nM | EC50 (PIKFYVE [2]): 100 to 500 nM

Cc1cccc(-c2ccn(-c3cc(N4CCOCC4)nc(OCC4CC4)n3)n2)c1 [Compound 101, 4-(2-(cyclopropyl-methoxy)-6-(3-(m-tolyl)-1H-pyrazol-1-yl)pyrimidin-4-yl)morpholine]
IC50 (PIKFYVE [1]; Table 3): 3 to 10 nM | EC50 (PIKFYVE [2]): 100 to 500 nM

C/C=C/COc1nc(N2CCOCC2)cc(-n2ccc(-c3cccc(C)c3)n2)n1 [Compound 102, (E)-4-(2-(but-2-en-1-yloxy)-6-(3-(m-tolyl)-1H-pyrazol-1-yl)pyrimidin-4-yl)morpholine]
IC50 (PIKFYVE [1]; Table 3): < 3 nM | EC50 (PIKFYVE [2]): < 20 nM

CC#CCOc1nc(N2CCOCC2)cc(-n2ccc(-c3cccc(C)c3)n2)n1 [Compound 103, 4-(2-(but-2-yn-1-yloxy)-6-(3-(m-tolyl)-1H-pyrazol-1-yl)pyrimidin-4-yl)morpholine]
IC50 (PIKFYVE [1]; Table 3): 3 to 10 nM | EC50 (PIKFYVE [2]): 100 to 500 nM

CC#CCCOc1nc(N2CCOCC2)cc(-n2ccc(-c3cccc(C)c3)n2)n1 [Compound 104, 4-(2-(pent-3-yn-1-yloxy)-6-(3-(m-tolyl)-1H-pyrazol-1-yl)pyrimidin-4-yl)morpholine]
IC50 (PIKFYVE [1]; Table 3): < 3 nM | EC50 (PIKFYVE [2]): 20 to 100 nM

COc1ccc(CCOc2nc(N3CCOCC3)cc(-n3ccc(-c4cccc(C)c4)n3)n2)cc1OC [Compound 105, 4-(2-(3,4-dimethoxy-phenethoxy)-6-(3-(m-tolyl)-1H-pyrazol-1-yl)pyrimidin-4-yl)morpholine]
IC50 (PIKFYVE [1]; Table 3): < 3 nM | EC50 (PIKFYVE [2]): < 20 nM

Cc1cccc(-c2ccn(-c3cc(N4CCOCC4)nc(O)n3)n2)c1 [Compound 106, 4-morpholino-6-(3-(m-tolyl)-1H-pyrazol-1-yl)pyrimidin-2-ol]
IC50 (PIKFYVE [1]; Table 3): 10 to 100 nM | EC50 (PIKFYVE [2]): 500 to 5000 nM

Cc1cccc(-c2ccn(-c3cc(N4CCOCC4)nc(N(C)C)n3)n2)c1 [Compound 107, N,N-dimethyl-4-morpholino-6-(3-(m-tolyl)-1H-pyrazol-1-yl)pyrimidin-2-amine]
IC50 (PIKFYVE [1]; Table 3): 10 to 100 nM | EC50 (PIKFYVE [2]): 500 to 5000 nM

C#CCCCOc1nc(N2CCOCC2)cc(-n2ccc(-c3cccc(C)c3)n2)n1 [Compound 108, 4-(2-(pent-4-yn-1-yloxy)-6-(3-(m-tolyl)-1H-pyrazol-1-yl)pyrimidin-4-yl)morpholine]
IC50 (PIKFYVE [1]; Table 3): 3 to 10 nM | EC50 (PIKFYVE [2]): 20 to 100 nM

Cc1cccc(-c2ccn(-c3cc(N4CCOCC4)nc(OCC(=O)C4CC4)n3)n2)c1 [Compound 109, 1-cyclopropyl-2-((4-morpholino-6-(3-(m-tolyl)-1H-pyrazol-1-yl)pyrimidin-2-yl)oxy)ethan-1-one]
IC50 (PIKFYVE [1]; Table 3): 3 to 10 nM | EC50 (PIKFYVE [2]): 20 to 100 nM

Cc1cccc(-c2ccn(-c3cc(N4CCOCC4)nc(OC4COC4)n3)n2)c1 [Compound 110, 4-(2-(oxetan-3-yloxy)-6-(3-(m-tolyl)-1H-pyrazol-1-yl)pyrimidin-4-yl)morpholine]
IC50 (PIKFYVE [1]; Table 3): < 3 nM | EC50 (PIKFYVE [2]): 100 to 500 nM

Cc1cccc(-c2ccn(-c3cc(N4CCOCC4)nc(OCC(c4ccccc4)N(C)C)n3)n2)c1 (stereo not drawn) [Compound 111, N,N-dimethyl-2-((4-morpholino-6-(3-(m-tolyl)-1H-pyrazol-1-yl)pyrimidin-2-yl)oxy)-1-phenylethan-1-amine]
IC50 (PIKFYVE [1]; Table 3): 3 to 10 nM | EC50 (PIKFYVE [2]): > 5000 nM

Cc1cccc(-c2ccn(-c3cc(N4CCOCC4)nc(OCCCc4ccco4)n3)n2)c1 [Compound 112, 4-(2-(3-(furan-2-yl)propoxy)-6-(3-(m-tolyl)-1H-pyrazol-1-yl)pyrimidin-4-yl)morpholine]
IC50 (PIKFYVE [1]; Table 3): 10 to 100 nM | EC50 (PIKFYVE [2]): 500 to 5000 nM

Cc1cccc(-c2ccn(-c3cc(N4CCOCC4)nc(OC(CN(C)C)c4ccccc4)n3)n2)c1 (stereo not drawn) [Compound 113, N,N-dimethyl-2-((4-morpholino-6-(3-(m-tolyl)-1H-pyrazol-1-yl)pyrimidin-2-yl)oxy)-2-phenylethan-1-amine]
IC50 (PIKFYVE [1]; Table 3): < 3 nM | EC50 (PIKFYVE [2]): 100 to 500 nM

c1ccc(-c2ccn(-c3cc(N4CCOCC4)nc(OCc4cccnn4)n3)n2)cc1 [Compound 114, 4-(6-(3-phenyl-1H-pyrazol-1-yl)-2-(pyridazin-3-ylmethoxy)pyrimidin-4-yl)morpholine]
IC50 (PIKFYVE [1]; Table 3): 3 to 10 nM | EC50 (PIKFYVE [2]): 100 to 500 nM

Cn1ccc(COc2nc(N3CCOCC3)cc(-n3ccc(-c4ccccc4)n3)n2)n1 [Compound 115, 4-(2-((1-methyl-1H-pyrazol-3-yl)methoxy)-6-(3-phenyl-1H-pyrazol-1-yl)pyrimidin-4-yl)morpholine]
IC50 (PIKFYVE [1]; Table 3): < 3 nM | EC50 (PIKFYVE [2]): 100 to 500 nM

Cc1cccc(-c2ccn(-c3cc(N4CCOCC4)nc(OCCn4cnc(CO)c4)n3)n2)c1 [Compound 116, (1-(2-((4-morpholino-6-(3-(m-tolyl)-1H-pyrazol-1-yl)pyrimidin-2-yl)oxy)ethyl)-1H-imidazol-4-yl)methanol]
IC50 (PIKFYVE [1]; Table 3): < 3 nM | EC50 (PIKFYVE [2]): 100 to 500 nM

Cc1cccc(-c2ccn(-c3cc(N4CCOCC4)nc(OCCn4cnc(CN(C)C)c4)n3)n2)c1 [Compound 117, N,N-dimethyl-1-(1-(2-((4-morpholino-6-(3-(m-tolyl)-1H-pyrazol-1-yl)pyrimidin-2-yl)oxy)ethyl)-1H-imidazol-4-yl)methanamine]
IC50 (PIKFYVE [1]; Table 3): 10 to 100 nM | EC50 (PIKFYVE [2]): 500 to 5000 nM

Cc1cccc(-c2ccn(-c3cc(N4CCOCC4)nc(OCCc4cn(C)cn4)n3)n2)c1 [Compound 118, 4-(2-(2-(1-methyl-1H-imidazol-4-yl)ethoxy)-6-(3-(m-tolyl)-1H-pyrazol-1-yl)pyrimidin-4-yl)morpholine]
IC50 (PIKFYVE [1]; Table 3): < 3 nM | EC50 (PIKFYVE [2]): 20 to 100 nM

Cc1cccc(-c2ccn(-c3cc(N4CCOCC4)nc(OCCc4c[nH]cn4)n3)n2)c1 [Compound 119, 4-(2-(2-(1H-imidazol-4-yl)ethoxy)-6-(3-(m-tolyl)-1H-pyrazol-1-yl)pyrimidin-4-yl)morpholine]
IC50 (PIKFYVE [1]; Table 3): 3 to 10 nM | EC50 (PIKFYVE [2]): 20 to 100 nM

Cc1cccc(-c2ccn(-c3cc(N4CCOCC4)nc(OCc4cn[nH]c4)n3)n2)c1 [Compound 120, 4-(2-((1H-pyrazol-4-yl)methoxy)-6-(3-(m-tolyl)-1H-pyrazol-1-yl)pyrimidin-4-yl)morpholine]
IC50 (PIKFYVE [1]; Table 3): 10 to 100 nM | EC50 (PIKFYVE [2]): 100 to 500 nM

Cc1cccc(-c2ccn(-c3cc(N4CCOCC4)nc(OCCO)n3)n2)c1 [Compound 121, 2-((4-morpholino-6-(3-(m-tolyl)-1H-pyrazol-1-yl)pyrimidin-2-yl)oxy)ethan-1-ol]
IC50 (PIKFYVE [1]; Table 3): 3 to 10 nM | EC50 (PIKFYVE [2]): 100 to 500 nM

Cc1cccc(-c2ccn(-c3cc(N4CCOCC4)nc(OCC4COC4)n3)n2)c1 [Compound 122, 4-(2-(oxetan-3-ylmethoxy)-6-(3-(m-tolyl)-1H-pyrazol-1-yl)pyrimidin-4-yl)morpholine]
IC50 (PIKFYVE [1]; Table 3): 3 to 10 nM | EC50 (PIKFYVE [2]): 100 to 500 nM

Cn1cc(CCOc2nc(N3CCOCC3)cc(-n3ccc(C4CC4)n3)n2)cn1 [Compound 123, 4-(6-(3-cyclopropyl-1H-pyrazol-1-yl)-2-(2-(1-methyl-1H-pyrazol-4-yl)ethoxy)pyrimidin-4-yl)morpholine]
IC50 (PIKFYVE [1]; Table 3): 10 to 100 nM | EC50 (PIKFYVE [2]): 500 to 5000 nM
